Results from patent US12655114B2, “Ionizable lipid compounds and lipid nanoparticle compositions” (SunVax mRNA Therapeutics Inc., priority 2022, dated 2026).

Experiments:
293T cells = assay: SamRNA-LUC transfection efficiency of LNPs by plate reader (luminescence); type: cell-based; details: LNP-SamRNA-Luc formulated with the lipid, incubated overnight, FIG. 11
Protocol: (§1) The LNPs containing SamRNA-GFP (or SamRNA-LUC, 100 ng/well) were added into 96-well plate which was pre-seeded with 293T, C2C12 or MC38 cells. After 24 hours incubation at 37° C. and 5% CO2, the luciferase SamRNA transfection efficiency was measured by plate reader (Perkin Elmer Envision 2104). The GFP SamRNA transfection efficiency was measured by flow cytometry (BD FACSymphony™ A5 SE Cell Analyzer).

[1] = tested on: 293T, C2C12 or MC38 cells; assay: SamRNA-GFP transfection efficiency of LNPs by flow cytometry; type: cell-based; details: LNP-SamRNA-GFP formulated with the lipid; FIGS. 4-6, 8-10
Protocol: The delivery system used to deliver the GFP-mRNA transfect are LNPs formulated using 12 individual ionizable lipids synthesized by three-component reactions. To generate the LNP encapsulated self-amplifying mRNA, the ionizable lipids of the present disclosure were dissolved in ethanol and directly added into an ethanol solution containing DOPE, cholesterol and DMG-PEG2000 at predetermined molar ratio. Self-amplifying mRNA encoding GFP sequences aqueous solution was mixed and the LNP mixture (100 ng mRNA) was added to a 96-well plate pre-seeded with MC38, C2C12 or 293T cells. The cells were incubated at 5% CO2 and 37° C. overnight. The GFP mRNA transfection efficiency was measured by flow cytometry.
E6, an ionizable lipid of the disclosure, was formulated into LNPs with 1,2-Dioleoyl-sn-glycero-3-phosphoethanolamine (DOPE), cholesterol (Chol), methoxypolyethylene glycol (DMG-PEG2000) with a mole ratio of 50/10/38.5/1.5 (ionizable lipid/DOPE/Chol/DMG-PEG2000) encapsulated self-amplifying mRNA or DNA encoding with reporter genes either green fluorescent protein (samRNA-GFP or DNA-CMV-EGFP) or firefly Luciferase (samRNA-LUC). Formulations containing 100 ng of self-amplifying mRNA were incubated to a well of 96-well plate with 60-70% confluent of HEK293, or C2C12, or MC38 cells (FIGS. 10, 23). The transfection efficiency was determined by flow cytometry for detection of GFP, or plate reader for detection of luciferase. LNP formulated using FDA approved ionizable lipid MC3 was used as a control (FIG. 10).
as §1

Structure (SMILES) | bioluminescence signals compared with MC3-LNP-SamRNA-Luc (293T cells) | delivery of mRNA-GFP compared with FDA approved ionizable lipid MC3 [1]
CCCCCCCCCCCCCCCC(=O)N(C(CCCCCCC)CCCCCCC)C(C(=O)NC12CC3CC(CC(C3)C1)C2)C1CCN(CC)CC1 (stereo not shown) [P56A1, N-(2-(((1s,3s)-adamantan-1-yl)amino)-1-(1-ethylpiperidin-4-yl)-2-oxoethyl)-N-(pentadecan-8-yl)palmitamide] | stronger bioluminescence signals than MC3-LNP-SamRNA-Luc | 
CCCCCCCCCCCCCC(=O)N(CC(CCCCCCCC)CCCCCCCCCC)C(C(=O)NC1CCCCC1)C1CCN(CC)CC1 (stereo not shown) [P26D4, N-(2-(cyclohexylamino)-1-(1-ethylpiperidin-4-yl)-2-oxoethyl)-N-(2-octyldodecyl) tetradecanamide] | stronger bioluminescence signals than MC3-LNP-SamRNA-Luc | 
CCCCCCCCCCCCCCCCC(=O)N(C(CCCCCCC)CCCCCCC)C(CC1CCN(C)CC1)C(=O)NC1CCCCC1 (stereo not shown) [P30B7, N-(1-(cyclohexylamino)-3-(1-methylpiperidin-4-yl)-1-oxopropan-2-yl)-N-(pentadecan-8-yl)heptadecanamide] | stronger bioluminescence signals than MC3-LNP-SamRNA-Luc | 
CCCCCCCCCCCCCCN(CCCCCCCCCCCCCC)C(c1cccs1)c1ccccc1O (stereo not shown) [TP4G11, 2-((ditetradecylamino)(thiophen-2-yl)methyl)phenol] |  | more effectively deliver mRNA-GFP
CCCCCCCCCCCCC(=O)N(C(CCCCCCC)CCCCCCC)C(C(=O)NCC(=O)OCC)C1CCN(CC)CC1 (stereo not shown) [P1C1, Ethyl (2-(1-ethylpiperidin-4-yl)-2-(N-(pentadecan-8-yl)tridecanamido)acetyl)glycinate] | stronger bioluminescence signals than MC3-LNP-SamRNA-Luc | 
CCCCCCCCCCCCCC(=O)N(C(CCCCCCC)CCCCCCC)C(C(=O)NC1CCCCCC1)C1CCN(CC)CC1 (stereo not shown) [P38D1, N-(2-(cycloheptylamino)-1-(1-ethylpiperidin-4-yl)-2-oxoethyl)-N-(pentadecan-8-yl)tetradecanamide] | stronger bioluminescence signals than MC3-LNP-SamRNA-Luc | 
CCCCCCCCCCCCCCCCC(=O)N(C(CCCCCCC)CCCCCCC)C(C(=O)NC12CC3CC(CC(C3)C1)C2)C1CCN(CC)CC1 (stereo not shown) [P56B1, N-(2-(((1s,3s)-adamantan-1-yl)amino)-1-(1-ethylpiperidin-4-yl)-2-oxoethyl)-N-(pentadecan-8-yl)heptadecanamide] | stronger bioluminescence signals than MC3-LNP-SamRNA-Luc | 
CCCCCCCCCCCC(=O)N(CC(CCCCCCCC)CCCCCCCCCC)C(CC1CCN(C)CC1)C(=O)NC1CCCCCC1 (stereo not shown) [P40C10, N-(1-(cycloheptylamino)-3-(1-methylpiperidin-4-yl)-1-oxopropan-2-yl)-N-(2-octyldodecyl)dodecanamide] | stronger bioluminescence signals than MC3-LNP-SamRNA-Luc | 
CCCCCCCCCCCCC(CCCCCCCCCC)CN(C(=O)CCCCCCCCC)C(C(=O)NC(C)(C)C)C1CCN(CC)CC1 (stereo not shown) [P53A6, N-(2-(tert-butylamino)-1-(1-ethylpiperidin-4-yl)-2-oxoethyl)-N-(2-decyltetradecyl)decanamide] | stronger bioluminescence signals than MC3-LNP-SamRNA-Luc | 
CCCCCCCCCCCCC(CCCCCCCCCC)CN(C(=O)CCCCCCCCCC)C(C(=O)NC12CC3CC(CC(C3)C1)C2)C1CCN(CC)CC1 (stereo not shown) [P54B6, N-(2-(((1s,3s)-adamantan-1-yl)amino)-1-(1-ethylpiperidin-4-yl)-2-oxoethyl)-N-(2-decyltetradecyl)undecanamide] | stronger bioluminescence signals than MC3-LNP-SamRNA-Luc | 
CCCCCCCCCCCCCCCC(=O)N(C(CCCCCCCC)CCCCCCCC)C(C(=O)NC1=CCCCC1)C1CCN(CC)CC1 (stereo not shown) [P6A2, N-(2-(cyclohex-1-en-1-ylamino)-1-(1-ethylpiperidin-4-yl)-2-oxoethyl)-N-(heptadecan-9-yl)palmitamide] | stronger bioluminescence signals than MC3-LNP-SamRNA-Luc | 
CCCCCCCCCCCCCCCC(=O)N(C(CCCCCCC)CCCCCCC)C(C(=O)NC1CCCCC1)C1CCN(CC)CC1 (stereo not shown) [P30A1, N-(2-(cyclohexylamino)-1-(1-ethylpiperidin-4-yl)-2-oxoethyl)-N-(pentadecan-8-yl)palmitamide] | stronger bioluminescence signals than MC3-LNP-SamRNA-Luc | 
CCCCCCCCC(CCCCCCCC)N(C(=O)CCCCCCC)C(C(=O)NCCCC)C1CCN(CC)CC1 (stereo not shown) [P14A2, N-(2-(butylamino)-1-(1-ethylpiperidin-4-yl)-2-oxoethyl)-N-(heptadecan-9-yl)octanamide] | stronger bioluminescence signals than MC3-LNP-SamRNA-Luc | 
CCCCCCCCCCCCC(=O)N(CC(CCCCCCCCCC)CCCCCCCCCCCC)C(CC1CCN(C)CC1)C(=O)NC(C)(C)C (stereo not shown) [P51C12, N-(1-(tert-butylamino)-3-(1-methylpiperidin-4-yl)-1-oxopropan-2-yl)-N-(2-decyltetradecyl)tridecanamide] | stronger bioluminescence signals than MC3-LNP-SamRNA-Luc | 
CCCCCCCCN(CCCCCCCC)C(c1ccc(C(c2ccccc2O)N(CCCCCCCC)CCCCCCCC)cc1)c1ccccc1O (stereo not shown) [TP1A11, 2,2′-(1,4-phenylenebis((dioctylamino)methylene))diphenol] |  | more effectively deliver mRNA-GFP
CCCCCCCCCCCCCC(=O)N(CC(CCCCCCCC)CCCCCCCCCC)C(C(=O)NCC(=O)OCC)C1CCN(CC)CC1 (stereo not shown) [P1D4, Ethyl (2-(1-ethylpiperidin-4-yl)-2-(N-(2-octyldodecyl)tetradecanamido)acetyl)glycinate] | stronger bioluminescence signals than MC3-LNP-SamRNA-Luc | 
CCCCCCCCCCCCCN(CCCCCCCCCCCCC)C(c1ccc(CCCCCCCCCCCC)cc1)c1ccccc1O (stereo not shown) [TP3F11, 2-((ditridecylamino)(4-dodecylphenyl)methyl)phenol] |  | more effectively deliver mRNA-GFP
CCCCCCCCCCC(=O)N(CC(CCCCCCCC)CCCCCCCCCC)C(CC1CCN(C)CC1)C(=O)NC1CCCCCC1 (stereo not shown) [P40B10, N-(1-(cycloheptylamino)-3-(1-methylpiperidin-4-yl)-1-oxopropan-2-yl)-N-(2-octyldodecyl)undecanamide] | stronger bioluminescence signals than MC3-LNP-SamRNA-Luc | 
CCCCCCCCCCCC(CCCCCCCCCCC)N(C(=O)CCCCCCCCC)C(C(=O)NC(C)(C)C)C1CCN(CC)CC1 (stereo not shown) [P53A5, N-(2-(tert-butylamino)-1-(1-ethylpiperidin-4-yl)-2-oxoethyl)-N-(tricosan-12-yl)decanamide] | stronger bioluminescence signals than MC3-LNP-SamRNA-Luc | 
CCCCCCCCCCCCCC(=O)N(C(CCCCCCCC)CCCCCCCC)C(CC1CCN(C)CC1)C(=O)NC1CCCCCC1 (stereo not shown) [P38D8, N-(1-(cycloheptylamino)-3-(1-methylpiperidin-4-yl)-1-oxopropan-2-yl)-N-(heptadecan-9-yl)tetradecanamide] | stronger bioluminescence signals than MC3-LNP-SamRNA-Luc | 
CCCCCCCCCCCCCCCCCC(=O)N(C(CCCCCCC)CCCCCCC)C(CC1CCN(C)CC1)C(=O)NC1CCCCC1 (stereo not shown) [P30C7, N-(1-(cyclohexylamino)-3-(1-methylpiperidin-4-yl)-1-oxopropan-2-yl)-N-(pentadecan-8-yl)stearamide] | stronger bioluminescence signals than MC3-LNP-SamRNA-Luc | 
CCCCCCCCCCC(=O)N(C(CCCCCCC)CCCCCCC)C(C(=O)NCCCC)C1CCN(CC)CC1 (stereo not shown) [P16B1, N-(2-(butylamino)-1-(1-ethylpiperidin-4-yl)-2-oxoethyl)-N-(pentadecan-8-yl)undecanamide] | stronger bioluminescence signals than MC3-LNP-SamRNA-Luc | 
CCCCCCCCCCCC(=O)N(C(CCCCCCCCCCC)CCCCCCCCCCC)C(CC1CCN(C)CC1)C(=O)NC1CCCCCC1 (stereo not shown) [P40C11, N-(1-(cycloheptylamino)-3-(1-methylpiperidin-4-yl)-1-oxopropan-2-yl)-N-(tricosan-12-yl)dodecanamide] | stronger bioluminescence signals than MC3-LNP-SamRNA-Luc | 
CCCCCCCCCCCCCCC(=O)N(C(CCCCCCC)CCCCCCC)C(CC1CCN(C)CC1)C(=O)NC1CCCCCC1 (stereo not shown) [P40D7, N-(1-(cycloheptylamino)-3-(1-methylpiperidin-4-yl)-1-oxopropan-2-yl)-N-(pentadecan-8-yl)pentadecanamide] | stronger bioluminescence signals than MC3-LNP-SamRNA-Luc | 
CCCCCCCCCCCCCC(=O)N(C(CCCCCCC)CCCCCCC)C(CC1CCN(C)CC1)C(=O)NC1CCCCCC1 (stereo not shown) [P38D7, N-(1-(cycloheptylamino)-3-(1-methylpiperidin-4-yl)-1-oxopropan-2-yl)-N-(pentadecan-8-yl)tetradecanamide] | stronger bioluminescence signals than MC3-LNP-SamRNA-Luc | 
